Values of other authors as cited in patent publication US20040204467A1, “Use of 5HT3-receptor-antagonists” (priority 1998, published 2004).

What was measured:
patients with CFS = settings: after an acute application on patients with CFS
CFS patients = settings: daily dose of 20 mg; also in patients with accompanying symptoms of depression

Row | Structure (SMILES) | rise of prolactin in the serum (patients with CFS) | result of treatment of CFS (CFS patients)
1 | CCN[C@@H](C)Cc1cccc(C(F)(F)F)c1 [D-Feufluoroamin] | significantly increased rise of prolactin | 
2 | CNCCC(Oc1ccc(C(F)(F)F)cc1)c1ccccc1 (centres unmarked) [fluoxetin] |  | negative in result
